The supplement of paper PMC13380429

Key:
[1] = tested on: A549-ACE2 infected with SARS-CoV-2; experiment: morphology score (similarity to uninfected cells); higher = more like uninfected cells; conditions: 24 h
Calu-3 [2] = experiment: relative viability EC50 (midpoint between 100% and the lowest measured viability); higher = less toxic; conditions: 72 h
Vero E6 [3] = experiment: as above; conditions: 72 h
U2OS [4] = experiment: as above; conditions: 72 h
Caco-2 [5] = experiment: as above; conditions: 72 h
A549-ACE2 = experiment: drug-induced phospholipidosis relative to tamoxifen; higher = more phospholipidosis
[6] = tested on: A549-ACE2 infected with SARS-CoV-2; experiment: SARS-CoV-2 infection rate relative to DMSO; higher = more infection; conditions: 24 h
HepG2 [7] = experiment: cell viability relative to DMSO; higher = less toxic; conditions: 72 h
Calu-3 [8] = experiment: as above; conditions: 72 h
Vero E6 [9] = experiment: as above; conditions: 72 h
U2OS [10] = experiment: as above; conditions: 72 h
Caco-2 [11] = experiment: as above; conditions: 72 h
[12] = tested on: A549-ACE2 infected with SARS-CoV-2; experiment: cell count relative to DMSO; higher = less toxic; conditions: 24 h
HepG2 [13] = experiment: drug sensitivity score (DSS) for viability; higher = more toxic; extreme values may be limits of the assay; conditions: 72 h
Calu-3 [14] = experiment: as above; conditions: 72 h
Vero E6 [15] = experiment: as above; conditions: 72 h
U2OS [16] = experiment: as above; conditions: 72 h
Caco-2 [17] = experiment: as above; conditions: 72 h
HepG2 [18] = experiment: relative viability EC50 (midpoint between 100% and the lowest measured viability); higher = less toxic; conditions: 72 h

Cc1ccc(CNc2ncnc3ccc(-c4ccc(CO)o4)cc23)o1 [ML167]
Conditions	SARS-CoV-2 infection rate, [6] [%]	cell count, [12] [%]	cell viability, Caco-2 [11] [%]	cell viability, Calu-3 [8] [%]	cell viability, HepG2 [7] [%]	cell viability, U2OS [10] [%]	cell viability, Vero E6 [9] [%]	morphology score, [1]
1 nM	–	–	106	102	94.8	102	104	–
10 nM	–	–	97.3	91.5	102	99.7	105	–
100 nM	–	–	110	98.1	99.2	106	95	–
0.3 µM	98	99	–	–	–	–	–	0.14
1000 nM	–	–	84.8	85	93.5	97.7	96.5	–
3 µM	92	111	–	–	–	–	–	0.35
10 µM	89	103	–	–	–	–	–	0.47
10000 nM	–	–	93.6	83	70.5	99.9	89.1	–
30 µM	72	99	–	–	–	–	–	0.52

Conditions	drug sensitivity score	relative viability EC50 [µM]
Caco-2 [5]	–	> 10
Caco-2 [17]	1.2	–
Calu-3 [2]	–	> 10
Calu-3 [14]	1.2	–
HepG2 [13]	2.3	–
U2OS [4]	–	> 10
U2OS [16]	0	–
Vero E6 [3]	–	> 10
Vero E6 [15]	0	–

drug-induced phospholipidosis [%], A549-ACE2
Conditions	0.3 µM	0.833333 µM	3.33333 µM	6.66667 µM	10 µM	30 µM
24 h	2.53	0.81	-3.37	5.92	6.99	19.4
48 h	1.66	-0.31	-4.24	1.31	3.46	12.6
72 h	1.51	-4.06	-1.11	-0.124	2.4	14.2

Oc1cc(CNC(=S)/C=C/c2cc(O)c(O)c(Br)c2)cc(O)c1O [NT157]
Conditions	SARS-CoV-2 infection rate, [6] [%]	cell count, [12] [%]	cell viability, Caco-2 [11] [%]	cell viability, Calu-3 [8] [%]	cell viability, HepG2 [7] [%]	cell viability, U2OS [10] [%]	cell viability, Vero E6 [9] [%]	morphology score, [1]
1 nM	–	–	78.4	104	101	102	89.7	–
10 nM	–	–	102	101	101	98.2	102	–
0.1 µM	104	104	–	–	–	–	–	0.06
100 nM	–	–	99.4	109	95.6	99.8	92.8	–
0.3 µM	103	107	–	–	–	–	–	0.02
1 µM	105	106	–	–	–	–	–	-0.23
1000 nM	–	–	90.2	103	74.1	64.9	91	–
3 µM	101	93	–	–	–	–	–	-0.08
10000 nM	–	–	25.7	25.6	25.4	23.5	32.9	–

Conditions	drug sensitivity score	relative viability EC50 [µM]
Caco-2 [5]	–	2.1
Caco-2 [17]	5.8	–
Calu-3 [2]	–	3.38
Calu-3 [14]	3.9	–
HepG2 [13]	7.4	–
HepG2 [18]	–	1.35
U2OS [4]	–	1.07
U2OS [16]	8.8	–
Vero E6 [3]	–	2.08
Vero E6 [15]	5.2	–

drug-induced phospholipidosis [%], A549-ACE2
Conditions	0.3 µM	0.833333 µM	3.33333 µM	6.66667 µM	10 µM
24 h	2.74	-0.68	-0.71	22	29.2
48 h	2.03	-0.74	-5.67	–	–
72 h	3.76	-0.841	–	–	–

CCN1CCN(c2ccc(Nc3cc(N(C)C(=O)Nc4c(Cl)c(OC)cc(OC)c4Cl)ncn3)cc2)CC1 [NVP-BGJ398]
Conditions	SARS-CoV-2 infection rate, [6] [%]	cell count, [12] [%]	cell viability, Caco-2 [11] [%]	cell viability, Calu-3 [8] [%]	cell viability, HepG2 [7] [%]	cell viability, U2OS [10] [%]	cell viability, Vero E6 [9] [%]	morphology score, [1]
1 nM	–	–	109	116	111	104	91.7	–
10 nM	–	–	102	102	100	95.1	101	–
0.1 µM	99	91	–	–	–	–	–	0.05
100 nM	–	–	103	106	110	98.1	90.5	–
0.3 µM	100	91	–	–	–	–	–	-0.02
1 µM	110	98	–	–	–	–	–	0.02
1000 nM	–	–	95.4	99.4	106	89.5	90.8	–
3 µM	97	93	–	–	–	–	–	0.2
10000 nM	–	–	76.1	89.8	68	90.5	66.2	–

Conditions	drug sensitivity score	relative viability EC50 [µM]
Caco-2 [5]	–	> 10
Caco-2 [17]	1.5	–
Calu-3 [2]	–	> 10
Calu-3 [14]	0	–
HepG2 [13]	1.1	–
U2OS [4]	–	> 10
U2OS [16]	0.1	–
Vero E6 [15]	2.4	–

drug-induced phospholipidosis [%], A549-ACE2
Conditions	0.3 µM	0.833333 µM	3.33333 µM	6.66667 µM	10 µM	30 µM
24 h	7.01	-3.2	0.41	0.28	8.33	40.8
48 h	5.03	-4.72	-2.05	0.17	2.69	25.9
72 h	3.12	-9.17	-6.95	-2.87	-1.22	27.1

S=C(S)N1CCCC1 [pyrrolidine-dithiocarbamate]
Conditions	SARS-CoV-2 infection rate, [6] [%]	cell count, [12] [%]	cell viability, Caco-2 [11] [%]	cell viability, Calu-3 [8] [%]	cell viability, HepG2 [7] [%]	cell viability, U2OS [10] [%]	cell viability, Vero E6 [9] [%]	morphology score, [1]
1 nM	–	–	101	93.7	95.5	101	102	–
10 nM	–	–	101	94.2	93.4	99.3	106	–
0.1 µM	108	101	–	–	–	–	–	-0.05
100 nM	–	–	90.2	102	96	102	101	–
0.3 µM	93	105	–	–	–	–	–	0.28
1 µM	85	103	–	–	–	–	–	0.32
1000 nM	–	–	30.4	99.8	106	95.4	103	–
3 µM	83	104	–	–	–	–	–	0.39
10000 nM	–	–	15.7	41.7	13.1	58.4	63	–

Conditions	drug sensitivity score	relative viability EC50 [µM]
Caco-2 [5]	–	0.368
Caco-2 [17]	14.2	–
Calu-3 [2]	–	3.14
Calu-3 [14]	3.2	–
HepG2 [13]	4.4	–
HepG2 [18]	–	3.53
U2OS [16]	2.8	–
Vero E6 [15]	1.6	–

drug-induced phospholipidosis [%], A549-ACE2
Conditions	0.3 µM	0.833333 µM	6.66667 µM	10 µM	30 µM
24 h	1.65	-0.57	5.92	3.64	-1.59
48 h	1.79	0.61	–	–	–
72 h	3.8	0.446	–	–	–
